In patent publication US7423044B2, “Pyrimidine derivatives useful in the treatment of insulin resistance and hyperglycemia” (Wyeth, priority 2002, dated 2008) one finds Ki and inhibition data, which are given here for 22 molecules.

For the first assay, the target named is T1, PTP-1B (Homo sapiens, UniProt P18031).
T1 sequence (P18031 1-435): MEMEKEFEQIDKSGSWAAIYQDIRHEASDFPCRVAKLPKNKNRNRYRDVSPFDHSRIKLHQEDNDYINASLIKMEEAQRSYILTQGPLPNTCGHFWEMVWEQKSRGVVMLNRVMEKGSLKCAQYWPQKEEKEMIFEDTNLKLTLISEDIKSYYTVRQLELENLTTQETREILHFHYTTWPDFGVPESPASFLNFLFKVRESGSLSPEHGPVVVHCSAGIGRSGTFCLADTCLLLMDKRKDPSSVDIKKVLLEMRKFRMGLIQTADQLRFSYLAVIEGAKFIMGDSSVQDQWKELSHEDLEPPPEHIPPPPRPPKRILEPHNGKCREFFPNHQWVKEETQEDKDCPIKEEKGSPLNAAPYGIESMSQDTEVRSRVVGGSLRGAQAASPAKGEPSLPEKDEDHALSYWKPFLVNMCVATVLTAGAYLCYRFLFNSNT
As to the kind of experiment: PTPase inhibition assay (DIFMUP fluorescence kinetic assay). Particulars: apparent final potency from steady-state velocity (Vs); 20 μM DIFMUP, 1 nM enzyme; read-out: Kiapp. In kind it is biochemical. As to the method: Measurement of PTPase activity: The present compounds are assayed in an enzyme activity-based assay. PTP-1B is known to dephosphorylate phospho-peptides. This assay is a fluorescence intensity based kinetic assay, taking advantage of a non-peptidyl substrate, 6,8-difluoro-4-methylumbelliferyl phosphate (DIFMUP). When excited at 358 nm, the dephosphorylated product of DIFMUP emits at 450 nm.
The compounds of Examples 1-22 were analyzed as follows. The assay was conducted in black 384-well non-treated plates (Costar#3710). The assay buffer contained 50 mM 3,3-dimethyl glutaric acid, pH 7.0, 48 mM NaCl, 1 mM EDTA. Inhibitors were prepared as DMSO solution and diluted to desired concentrations using 50 mM HEPES, pH 7.4. PTP-1B was diluted to a 2.5 nM working stock using the assay buffer containing additional 0.001% (w/v) hydrogenated Triton X-100. DIFMUP was diluted to 40 μM using the assay buffer. 5 μl of inhibitor was first dispensed into assay plate. In cases of control reactions, […] of the assay buffer was dispensed. This was followed by 25 μl of DIFMUP working stock. The reaction was then initiated by the addition of 20 μl of PTP-1B working stock. The final DIFMUP concentration was 20 μM (˜1.6×Km). The final enzyme concentration was 1 nM and the detergent concentration was 0.0004% (w/v). Typical inhibitor concentrations were from 0.08 to 40 μM. The reaction progress was monitored continuously for 30 min.
Calculations: For data analysis, the last five data points were used to obtain a slope corresponding to the estimated steady-state velocity (Vs), and the overall progress curves were used to obtain the average velocity (Va), by linear regression in both cases. The apparent final potency of inhibitor (Kiapp) was then calculated from Vs data, using the standard hyperbolic inhibition equation. The IC50 values were calculated from Va data using the sigmoidal inhibition equation. % Inhibition values were calculated from Va values of inhibitor at 40 μM, and the average Va value of control reactions.
Take `O=C(O)c1ccc(COc2cc(-c3ccccc3)nc(-c3ccncc3)n2)cc1` [Example 6, 4-{[(6-Phenyl-2-pyridin-4-ylpyrimidin-4-yl)oxy]methyl}benzoic acid]: the Ki came to 7.21 µM.

As for `O=C(O)c1ccc(COc2cc(-c3ccccc3)nc(-c3ccc(Cl)cc3)n2)cc1` [Example 1, 4-({[2-(4-Chlorophenyl)-6-phenylpyrimidin-4-yl]oxy}methyl)benzoic acid], the Ki was found to be 1.67 µM.

For the molecule `O=C(O)c1ccc(COc2cc(-c3ccccc3)nc(-c3ccccc3)n2)cc1` [Example 7, 4-{[(2,6-Diphenylpyrimidin-4-yl)oxy]methyl}benzoic acid], the Ki was determined as 2.97 µM.

Staying with this assay, now noted: inhibitor at 40 μM; from average velocity (Va); 20 μM DIFMUP, 1 nM enzyme.
A word on the inhibition: it is the relative decrease from the control value, in per cent. For the molecule `CC(C)c1cc(OCc2ccc(F)cc2)nc(-c2cc(Cl)cc(Cl)c2)n1` [Example 8, 2-(3,5-Dichlorophenyl)-4-[(4-fluorobenzyl)oxy]-6-isopropylpyrimidine], the inhibition at 40 µM was 48%.

For the molecule `CC(C)c1cc(OCc2ccc(C#N)cc2)nc(-c2cc(Cl)cc(Cl)c2)n1` [Example 11, 4-({[2-(3,5-Dichlorophenyl)-6-isopropylpyrimidin-4-yl]oxy}methyl)benzonitrile], the inhibition at 40 µM is 34%.

With `Fc1ccc(COc2nc(-c3ccc(Cl)cc3)nc3c2CCC3)cc1` [Example 2, 2-(4-Chlorophenyl)-4-[(4-fluorobenzyl)oxy]-6,7-dihydro-5H-cyclopenta[d]pyrimidine], the inhibition at 40 µM was 10%.

Consider `Fc1ccc(COc2nc(-c3cc(Cl)cc(Cl)c3)nc3c2CN(Cc2ccccc2)CC3)cc1` [Example 9, 6-Benzyl-2-(3,5-dichlorophenyl)-4-[(4-fluorobenzyl)oxy]-5,6,7,8-tetrahydropyrido[4,3-d]pyrimidine], for which the inhibition at 40 µM worked out at 55%.

As to `O=[N+]([O-])c1cccc(-c2nc3c(c(OCc4ccc(C(F)(F)F)cc4)n2)CN(Cc2ccccc2)CC3)c1` [Example 18, 6-Benzyl-2-(3-nitrophenyl)-4-{[4-(trifluoromethyl)benzyl]oxy}-5,6,7,8-tetrahydropyrido[4,3-d]pyrimidine], the inhibition at 40 µM was 51%.

Take `O=C(O)c1ccc(COc2cc(-c3ccccc3)nc(-c3ccncc3)n2)cc1` [Example 6, 4-{[(6-Phenyl-2-pyridin-4-ylpyrimidin-4-yl)oxy]methyl}benzoic acid]: the inhibition at 40 µM stood at 56%.

As for `N#Cc1ccc(COc2nc(-c3cccc([N+](=O)[O-])c3)nc3c2CN(Cc2ccccc2)CC3)cc1` [Example 14, 4-({[6-Benzyl-2-(3-nitrophenyl)-5,6,7,8-tetrahydropyrido[4,3-d]pyrimidin-4-yl]oxy}methyl)benzonitrile], the inhibition at 40 µM is 64%.

Take `CC(C)c1cc(OCc2ccc(C(F)(F)F)cc2)nc(-c2cccc([N+](=O)[O-])c2)n1` [Example 17, 4-Isopropyl-2-(3-nitrophenyl)-6-{[4-(trifluoromethyl)benzyl]oxy} pyrimidine]: the inhibition at 40 µM worked out at 49%.

As for `CC(C)c1cc(OCc2ccc(F)cc2)nc(-c2cccc([N+](=O)[O-])c2)n1` [Example 10, 4-[(4-Fluorobenzyl)oxy]-6-isopropyl-2-(3-nitrophenyl)pyrimidine], the inhibition at 40 µM came to 56%.

With `O=C(O)c1ccc(COc2nc(-c3cc(Cl)cc(Cl)c3)nc3c2CN(Cc2ccccc2)CC3)cc1` [Example 20, 4-({[6-Benzyl-2-(3,5-dichlorophenyl)-5,6,7,8-tetrahydropyrido[4,3-d]pyrimidin-4-yl]oxy}methyl)benzoic acid], the inhibition at 40 µM stood at 100%.

For the molecule `CC(C)c1cc(OCc2ccc(C(F)(F)F)cc2)nc(-c2cc(Cl)cc(Cl)c2)n1` [Example 15, 2-(3,5-Dichlorophenyl)-4-isopropyl-6-{[4-(trifluoromethyl)benzyl]oxy} pyrimidine], the inhibition at 40 µM amounted to 57%.

Take `CC(C)c1cc(OCc2ccc(C(=O)O)cc2)nc(-c2cc(Cl)cc(Cl)c2)n1` [Example 19, 4-({[2-(3,5-Dichlorophenyl)-6-isopropylpyrimidin-4-yl]oxy}methyl)benzoic acid]: the inhibition at 40 µM was found to be 101%.

Take `CC(C)c1cc(OCc2ccc(C(=O)O)cc2)nc(-c2cccc([N+](=O)[O-])c2)n1` [Example 21, 4-({[6-Isopropyl-2-(3-nitrophenyl)pyrimidin-4-yl]oxy}methyl)benzoic acid]: the inhibition at 40 µM is 101%.

Consider `N#Cc1ccc(COc2nc(-c3cc(Cl)cc(Cl)c3)nc3c2CN(Cc2ccccc2)CC3)cc1` [Example 12, 4-({[6-Benzyl-2-(3,5-dichlorophenyl)-5,6,7,8-tetrahydropyrido[4,3-d]pyrimidin-4-yl]oxy}methyl)benzonitrile], for which the inhibition at 40 µM stood at 54%.

For `Fc1ccc(COc2cc(-c3ccccc3)nc(-c3ccncc3)n2)cc1` [Example 3, 4-[(4-Fluorobenzyl)oxy]-6-phenyl-2-pyridin-4-ylpyrimidine], the inhibition at 40 µM came to 11%.

As for `O=C(O)c1ccc(COc2nc(-c3cccc([N+](=O)[O-])c3)nc3c2CN(Cc2ccccc2)CC3)cc1` [Example 22, 4-({[6-Benzyl-2-(3-nitrophenyl)-5,6,7,8-tetrahydropyrido[4,3-d]pyrimidin-4-yl]oxy}methyl)benzoic acid], the inhibition at 40 µM is 93%.

In the case of `O=C(O)c1ccc(COc2cc(-c3ccccc3)nc(-c3ccc(Cl)cc3)n2)cc1` [Example 1, 4-({[2-(4-Chlorophenyl)-6-phenylpyrimidin-4-yl]oxy}methyl)benzoic acid], the inhibition at 40 µM is 100%.

Regarding `FC(F)(F)c1ccc(COc2nc(-c3cc(Cl)cc(Cl)c3)nc3c2CN(Cc2ccccc2)CC3)cc1` [Example 16, 6-Benzyl-2-(3,5-dichlorophenyl)-4-{[4-(trifluoromethyl)benzyl]oxy}-5,6,7,8-tetrahydropyrido[4,3-d]pyrimidine], the inhibition at 40 µM was found to be 52%.

Take `O=C(O)c1ccc(COc2cc(-c3ccccc3)nc(-c3ccccc3)n2)cc1` [Example 7, 4-{[(2,6-Diphenylpyrimidin-4-yl)oxy]methyl}benzoic acid]: the inhibition at 40 µM stood at 99%.

Take `Fc1ccc(COc2cc(-c3ccccc3)nc(-c3ccc(Cl)cc3)n2)cc1` [Example 5, 2-(4-Chlorophenyl)-4-[(4-fluorobenzyl)oxy]-6-phenylpyrimidine]: the inhibition at 40 µM amounted to 11%.

With `Fc1ccc(COc2nc(-c3ccccc3)nc3c2CCC3)cc1` [Example 4, 4-[(4-Fluorobenzyl)oxy]-2-phenyl-6,7-dihydro-5H-cyclopenta[d]pyrimidine], the inhibition at 40 µM is 12%.

Consider `CC(C)c1cc(OCc2ccc(C#N)cc2)nc(-c2cccc([N+](=O)[O-])c2)n1` [Example 13, 4-({[6-isopropyl-2-(3-nitrophenyl)pyrimidin-4-yl]oxy}methyl)benzonitrile], for which the inhibition at 40 µM came to 55%.
